The test system of one data set is platelet aggregation. To be noted: cited from earlier work.
In data set [1] the test system is Zymosan Stimulated Macrophages (arachidonic acid release). Nature of the data set: Test A: Inhibition of Arachidonic Acid Release from Zymosan Stimulated Macrophages. It is filed as cell-based, mouse (female MF1 mice). The following applies: Mus musculus, Macrophage, read-out: Test A IC50. In a few lines: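 Peritoneal macrophages from female MF1 mice, labelled overnight with [3H]-arachidonic acid (1.6 μCi/ml), then exposed to compound 24 h unstimulated and re-dosed with zymosan stimulus for 5 h at 37 °C. Released radioactivity counted by scintillation; spontaneous release subtracted; IC50 from six concentrations (1–100 μM), quadruplicate wells.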

The subject of data set [2] is Carrageenan-induced rat paw oedema. In words: Test B: Carrageenan-induced rat paw oedema test. The class given is in vivo. The following applies: 100 mg/kg oral; active = 20% or greater inhibition of paw oedema in at least two out of three tests. The procedure:
Test B was carried out in the following way: Carrageenan-induced rat paw oedema test Female rats, weight range 125-150 g were fasted overnight. One of the hind legs of each animal was marked with a line at the connection between the cuboid/navicular and calcaneus/talus bones. Groups of six rats were orally dosed at 10 ml/kg, in random order, with a given dose of the test compound given as a solution or suspension in 10% (w/v) aqueous acacia solution. One hour after dosing, 0.1 ml of 1% (w/v) sterile carrageenan λ in normal saline was injected deeply into the plantar surface of the marked hind foot of each rat. The volume of the foot (up to the marked line) was measured immediately after injection using duplicate water displacement readings. Three hours after injection the foot volume was measured again and the percentage increase in foot volume relative to the initial reading was calculated. The increase in foot volume (i.e. the degree of oedema) in drug treated animals when compared with that in the drug untreated control gave the degree of inhibition of paw oedema by the drug. Compounds were considered to be active in this test if they produced a 20% or greater inhibition of paw oedema in at least two out of three tests after oral dosing at 100 mg/kg. Statistical significance was assessed using the Student's t test for single dose studies and Dunnett's test for multiple dose studies. More advantageous compounds were active in both Tests A and B.
For orientation: The carrageenan paw model is a standard test of acute inflammation.

Data set [3] concerns Carrageenan-induced pleurisy (migrating leukocytes). In words: Carrageenan-induced pleurisy in rats. The following applies: rat, p.o. at time of challenge and 24h and 48h thereafter; 10 mg/kg. The class given is in vivo. The procedure: The most advantageous compounds of formula I were active in Tests A and B and also in the following test. Carrageenan-induced pleurisy in rats was carried out as described by Ackerman et al. J. Pharmacol. Exp. Therap. 1980, 215, 588-595. Migrating leukocytes were harvested by lavage of the thoracic cavity 72h after injection of 0.3 ml 1% λcarrageenan in sterile isotonic saline. Test compounds were administered p.o. at the time of challenge and 24h and 48 h thereafter.

Data set [4] deals with lymphocyte proliferation (BALB/c responder and C57BL/6 stimulator spleen cells). In words: Test C: Mixed Lymphocyte Reaction. It is filed as cell-based, mouse (BALB/c and C57BL/6). The following applies: Mus musculus, final concentration, read-out: IC50 (50% inhibition of the immune response). The procedure: A mixed lymphocyte reaction (MLR) occurs when lymphocytes from two genetically dissimilar individuals, or inbred strains of mice are cultured together. An MLR results in the activation and proliferation of lymphocytes, which is measured by the incorporation of radiolabelled thymidine into the cellular DNA synthesised during cell division. A `one-way` MLR is used to determine the immunosuppressive activity of test compounds in vitro. In this reaction one population of spleen cells serves as the stimulator cells and is treated with mitomycin C to prevent cell division. Spleen cells from a second allogeneic population (responder cells) are untreated and when mixed with the stimulator cells are able to undergo division which is measured. The degree of proliferation is measured in the presence and absence of test compound to assess the immunosuppressive activity of the compound. The techniques for carrying out lymphocyte proliferation assays including MLRs are well known, eg Bradley, pages 156-166, in Mishell and Shiigi, Eds. Selected Methods in Cellular Immunology (Freeman, San Francisco, 1980); and Battisto et al, methods in Enzymology 1987; 150: 83-91. Various slight modifications of these techniques are in use and that used herein is described in Gibb, Webber and Bowen, J Immunological Methods 1985; 81: 107-113. The immunomodulant activity of the preferred compounds was determined in a mixed lymphocyte reaction (Test C) in the following manner: Mixed Lymphocyte Reaction Cell suspensions obtained from the spleens of female BALB/c and C57BL/6 strain mice of between 6 and 9 weeks of age were used as sources of responder and stimulator cells respectively. The mice were killed using a rising concentration of CO2 and the spleens removed aseptically and teased using a scalpel and forceps to produce a single cell suspension in Hanks balanced salt solution (HBSS). The suspensions were filtered through cell strainers (Falcon), sedimented by centrifugation and resuspended in Tris-buffered ammonium chloride pH 7.2 (medium D) to lyse the erythrocytes. The cells were sedimented again and washed twice in HBSS before resuspending in complete RPMI 1640 tissue culture medium (medium E). The C57BL/6 cells were resuspended to 9 mls per spleen and a solution of mitomycin C at 400 μg/ml in medium E added to give a final concentration of 40 μg/ml. After incubation of the C57BL/6 cells at 37° C. for 30 minutes in an atmosphere of 5% CO2 and 95% air, the cells were sedimented and washed 3 times in medium E. Both cell suspensions were diluted in medium E to 5×10^6 cells/ml. 100 μl of each of the responder and stimulator cell suspensions were aliquoted into the wells of 96 well flat bottom microtitre plates containing 50 μl of test compound at an appropriate dilution (initially 50 μM diluted in medium E from a stock solution at 100 mM in dimethyl sulphoxide) giving a final test compound concentration of 10 μM (final dilution). […] After four days of culture at 37° C. in a humidified atmosphere of 5% CO2 and 95% air, 1 μCi of tritiated thymidine in 20 μl of medium E was added to each well and the plates incubated for a further 24 hours. […] The filters were transferred to vials to which 2 mls of Packard Emulsifier-Safe scintillation fluid was added and the radioactivity from the incorporated thymidine was counted in a Packard liquid scintillation counter. […] The data were analysed to determine the percentage inhibition of lymphocyte proliferation by the test compound. […]

The conditions of data set [5]: cited from earlier work.
The conditions of data set [6]: Indian Journal of Pharmacology 1973, 5, 428 / Pfl. Krankh. 1975, 3, 149; cited from earlier work.
Where [7] appears, read: inhibition of arachidonic acid release, zymosan stimulated mouse peritoneal macrophages, tested at 100, 50, 20, 10, 5 and 1 μM, ≤100 μM considered active.

Structures can show the parent of a compound that is named as a salt. Where two headings read alike, the source gives them in different places.

As for `CC(CCn1ccnc1)NCc1ccccc1` (stereo not shown) [Compound A], the “inhibitory effect on platelet aggregation in vitro” value with platelet aggregation is given as “inhibitory effect on platelet aggregation in vitro”.
Usually IC50 stands for the concentration needed to halve the response being measured. For the molecule `Cl.Cl.Clc1ccc(OCCNCCCn2ccnc2)cc1` [Example 2, N-[2-(4-chlorophenoxy)ethyl]-3-(imidazol-1-yl)propylamine dihydrochloride], in data set [1] (setting [7]), the IC50 came out at 26 µM. Also, the “activity in Test B (inhibition of paw oedema)” value in data set [2] is “active”. For the same molecule, the “activity in carrageenan-induced pleurisy at 10 mg/kg” value (“activity … at 10 mg/kg” below) in data set [3] is given as “active”.
For `c1ccc(OCCNCCCn2ccnc2)cc1` [Example 3, 3-(Imidazol-1-yl)-N-(2-phenoxyethyl)propylamine], the IC50 in data set [1] (setting [7]) came to 30 µM. The “activity in Test B (inhibition of paw oedema)” value in data set [2] was “active”.
Taken in the same sequence, the figures for `CC(C)(CNCCCn1ccnc1)Oc1ccccc1Cl` [Example 4, 2-(2-Chlorophenoxy)-3'-(imidazol-1-yl)-2-methyldipropylamine] were 29 µM and “active”.
For `Cl.Cl.Fc1ccc(OCCNCCCn2ccnc2)cc1` [Example 7, N-[2-(4-Fluorophenoxy)ethyl]-3-(imidazol-1-yl)propylamine dihydrochloride], in data set [1] (setting [7]), the concentration for half-maximal inhibition (IC50) was 39 µM. Further, the “activity in Test B (inhibition of paw oedema)” value in data set [2] was “active”.
For the molecule `Cc1nccn1CCCNCCOc1ccc(Cl)cc1` [Example 8, N-[2-(4-Chlorophenoxy)ethyl]-3-(2-methylimidazol-1-yl)propylamine], the values for the 50% inhibitory concentration (IC50) in data set [4] and in data set [1] (setting [7]) were 2.4 µM and 14 µM, respectively. In addition, the “activity in Test B (inhibition of paw oedema)” value in data set [2] is “active”.
Take `CC(CNCCCn1ccnc1)Oc1ccc(Cl)cc1` (stereo not shown) [Example 15, 2-(4-chlorophenoxy)-3'-(imidazol-1-yl)dipropylamine dihydrochloride]: in data set [1] (setting [7]), the IC50 amounted to 27 µM. Also, in data set [2], the “activity in Test B (inhibition of paw oedema)” value is reported as “active”. The “activity … at 10 mg/kg” value in data set [3] was “active”.
On to `Clc1ccc(OCCNCCCCCn2ccnc2)cc1` [Example 16, N-[2-(4-chlorophenoxy)ethyl]-5-(imidazol-1-yl)pentylamine dihydrochloride hemihydrate], for which the values for the IC50 in data set [4] and in data set [1] (setting [7]) were 2.8 µM and 7 µM, respectively. For the same molecule, the “activity … at 10 mg/kg” value in data set [3] is given as “active”.
As to `CC(C)(COc1ccc(Cl)cc1)NCCCn1ccnc1.Cl.Cl` [Example 17, N-[2-(4-chlorophenoxy)-1,1-dimethylethyl]-3-(imidazol-1-yl)propylamine dihydrochloride], the 50% inhibitory concentration (IC50) in data set [4] came to 5.9 µM; in data set [1] (setting [7]), 12 µM. The “activity … at 10 mg/kg” value in data set [3] is reported as “active”.
With `CC(C)(CSc1ccc(Cl)cc1)NCCCn1ccnc1` [Example 19, N-[2-(4-Chlorophenylthio)-1,1-dimethylethyl]-3-(imidazol-1-yl)propylamine dihydrochloride], the values for the IC50 in data set [4] and in data set [1] were 1.7 µM and 8 µM, respectively.
On to `CN(CCCn1ccnc1)CCOc1ccc(Cl)cc1` [Example 64, N-[2-(4-chlorophenoxy)ethyl]-3-(imidazol-1-yl)-N-methylpropylamine], for which, in data set [1] (setting [7]), the IC50 was 32 µM. Moreover, the “activity in Test B (inhibition of paw oedema)” value in data set [2] was “active”. The “activity … at 10 mg/kg” value in data set [3] is on record as “active”.
With `CC(C)(NCCCc1ncc[nH]1)c1ccccc1` [Example 87, 3-(imidazol-2-yl)-N-(1-methyl-1-phenylethyl)propylamine], the IC50 in data set [4] came out at 5.8 µM; in data set [1] (setting [7]), 25 µM.
On to `Cl.Cl.Clc1ccc2c(c1)CCC2NCCCn1ccnc1` (stereo not shown) [Example 88, N-(5-chloroindan-1-yl)-3-(imidazol-1-yl)propylamine dihydrochloride], for which the IC50 in data set [1] (setting [7]) was determined as 28 µM. Moreover, the “activity in Test B (inhibition of paw oedema)” value in data set [2] is recorded as “active”. Moreover, the “activity … at 10 mg/kg” value in data set [3] is “active”.
With `CCC(NCC(C)N1CCOCC1)c1ccc(Cl)c(Cl)c1` (stereo not drawn) [N-[2-(4-Morpholino)propyl]-α-ethyl-3,4-dichlorobenzylamine], the “undesirable side-effects in mice” value in data set [5] is “wide range of undesirable side-effects in mice”. In data set [6], the “antiinflammatory activity (alleged)” value is reported as “alleged to have antiinflammatory activity”.
